According to patent publication US9480668B2, “Blood flow promoting agent” (KYOWA HAKKO BIO CO., LTD., priority 2012, dated 2016):

Experiments:
[1] = system: thoracic aorta isolated from a rat; experiment: Magnus method: vasodilatory potency on aortic ring, relaxation of Norepinephrine 0.3 μM-induced contraction; settings: L-citrulline 1000 μM, single addition; vasoconstriction induced by 0.3 μM Norepinephrine
[2] = sublingual treatment, concentration-dependent; non-patent document 3; cited from earlier work

With NC(=O)NCCC[C@H](N)C(=O)O [L-citrulline] as the compound, how does the “vascular relaxation rate (%)” value [1] read?
Its value is 15-20%.

With COc1cc(CNC(=O)CCCCC=CC(C)C)ccc1O [capsaicin, 8-methyl-N-vanillyl-6-nonenamide] as the compound, how does the “concentration of capsaicin solution producing a feeling of strong pain” value [2] read?
The value was “not less than 75 μM”.
